# In US20160311795A1, “PYRIMIDINE DIAMINE DERIVATIVES AS INHIBITORS OF CYTOSOLIC HSP90” (CALASIA PHARMACEUTICALS, INC., priority 2012, published 2016):
# Where two headings read alike, the source gives them in different places.
# Target: T1, human full length Hsp90 (Homo sapiens, UniProt P07900)
# T1 construct: amino acid residues 1 to 732 of human Hsp90 (GenBank: BC121062.2); made in house; host or cells: E. coli BL21DE3 (pET15b)
# Experiment: Fluorescence polarization Hsp90 competitive binding assay (GM-FITC displacement)
# Conditions: for inhibition at 1 µM: compound at 1 μM, read-out: Biochemical Potency % Inhibition at 1 μM; for inhibition at 10 µM: compound at 10 μM, read-out: Biochemical Potency % Inhibition at 10 μM
# Protocol: Hsp90 binding assays was performed generally according to the procedure described in J. Biomol. […] Hsp90 inhibitors were solubilized in DMSO at a stock concentration of 50 mM. […] Eighty five μl of binding assay buffer (20 mM HEPES, pH-7.5, 50 mM KCl, 5 mM MgCl2, 20 mM sodium molybdate, 0.01% NP-40, 2 mM DTT, and 0.1 mg/ml BSA) was added to the wells of a 96 well black plate placed on ice. […] Next, 10 μl either binding assay buffer alone (control) or human full length Hsp90 protein diluted in the binding assay buffer was added to achieve a final concentration of 50 nM. The plates were incubated at 4° C. on a plate shaker for 24 h. Two μl of 50× GM-FITC (9 nM final) in DMSO was added to all wells and the plate was incubated at ambient temperature for 1 h with shaking. Fluorescence polarization readings were taken in duplicate at excitation and emission wavelengths of 480 nm and 500 nm respectively. Specific binding was calculated by subtracting polarization values in the presence of Hsp90 from those in the absence of Hsp90. To calculate percent inhibition the specific binding values obtained for GA-FITC in the presence of compound were compared to values for GA-FITC in the absence of compound (DMSO only).
# [1] = Table 1, 50 nM Hsp90, 9 nM GM-FITC, read-out: Biochemical Potency IC50
# [2] = Table II, binding affinities ranked by potency
# [3] = Table II, binding affinities ranked by potency, read-out: IC50
IC50 [1] [nM],Ki [2] [nM],IC50 [3] [nM],inhibition at 1 µM [%],inhibition at 10 µM [%],Compound
1690,423,1690,–,–,"COc1c(C)cnc(CN(CCN2CCOCC2)c2cc(Cl)nc(N)n2)c1C [SBI-0640611, 6-Chloro-N4-((4-methoxy-3,5-dimethylpyridin-2-yl)methyl)-N4-(2-morpholinoethyl)pyrimidine-2,4-diamine]"
368,92,368,–,–,"COc1c(C)cnc(CN(CCc2ccc3c(c2)OCO3)c2cc(Cl)nc(N)n2)c1C [SBI-0640607, N4-(2-(Benzo[d][1,3]dioxol-5-yl)ethyl)-6-chloro-N4-((4-methoxy-3,5-dimethylpyridin-2-yl)methyl)pyrimidine-2,4-diamine]"
391,98,391,–,–,"CCCCCCN(Cc1ncc(C)c(OC)c1C)c1cc(Cl)nc(N)n1 [SBI-0640609, 6-Chloro-N4-hexyl-N4-((4-methoxy-3,5-dimethylpyridin-2-yl)methyl)pyrimidine-2,4-diamine]"
13900,3480,13900,–,–,COc1c(C)cnc(CN(C(=O)C(C)C)c2cc(Cl)nc(N)n2)c1C [SBI-0640644]
> 250000,> 2500,> 10000,–,–,COc1ccc(CNc2ccnc(N)n2)cc1OC [SBI-0634912]
350,88,350,–,–,"6-Chloro-N4-((4-methoxy-3,5-dimethylpyridin-2-yl)methyl)-N4-(4-methoxyphenethyl)pyrimidine-2,4-diamine [SBI-0640605]"
194,49,194,–,–,"Cc1cnc(CN(CCc2ccc(Cl)cc2)c2cc(Cl)nc(N)n2)c(C)c1Cl [SBI-0640610, 6-Chloro-N4-((4-chloro-3,5-dimethylpyridin-2-yl)methyl)-N4-(4-chlorophenethyl)pyrimidine-2,4-diamine]"
–,368,1470,44,94,"Cc1cnc(CNc2cc(Cl)nc(N)n2)c(C)c1Br [SBI-0639218, N4-((4-Bromo-3,5-dimethylpyridin-2-yl)methyl)-6-chloropyrimidine-2,4-diamine]"
1140,285,1140,–,–,"CCN(Cc1ncc(C)c(OC)c1C)c1cc(Cl)nc(N)n1 [SBI-0640612, 6-Chloro-N4-ethyl-N4-((4-methoxy-3,5-dimethylpyridin-2-yl)methyl)pyrimidine-2,4-diamine]"
719,180,720,–,–,"CCCCN(Cc1ncc(C)c(OC)c1C)c1cc(Cl)nc(N)n1 [SBI-0639354, N4-butyl-6-chloro-N4-((4-methoxy-3,5-dimethylpyridin-2-yl)methyl)pyrimidine-2,4-diamine]"
30000,7500,30000,–,–,"COc1c(C)cnc(CN(C(=O)CC(C)(C)C)c2cc(Cl)nc(N)n2)c1C [SBI-0639901, N-(2-amino-6-chloropyrimidin-4-yl)-N-((4-methoxy-3,5-dimethylpyridin-2-yl)methyl)-3,3-dimethylbutanamide]"
2150,538,2150,–,–,"Cc1cnc(CN(C)c2cc(Cl)nc(N)n2)c(C)c1Cl [SBI-0639899, 6-Chloro-N4-((4-chloro-3,5-dimethylpyridin-2-yl)methyl)-N4-methylpyrimidine-2,4-diamine]"
≥ 32000,> 8000,> 32000,–,–,COc1c(C)cnc(CN(C(C)=O)c2cc(Cl)nc(N)n2)c1C [SBI-0640492]
–,> 2500,> 10000,4,19,COc1c(C)cnc(CNc2nc(N)nc3[nH]cnc23)c1C [SBI-0639182]
–,> 2500,> 10000,–,3,CCOc1ccc(-c2ccc(CNc3cc(Cl)nc(N)n3)cc2)cc1 [SBI-0638969]
> 250000,> 2500,> 10000,–,–,COc1cc(CNc2ccnc(N)n2)cc(OC)c1OC [SBI-0634911]
–,> 2500,> 10000,–,13,COc1cccc(CNc2cc(Cl)nc(N)n2)c1 [SBI-0630160]
1100,275,1100,–,–,"CCCN(Cc1ncc(C)c(OC)c1C)c1cc(Cl)nc(N)n1 [SBI-0639350, 6-Chloro-N4-((4-methoxy-3,5-dimethylpyridin-2-yl)methyl)-N4-propylpyrimidine-2,4-diamine]"
–,> 2500,> 10000,–,10,Nc1nc(Cl)cc(NCc2ccc(Oc3ccccc3)cc2)n1 [SBI-0638967]
311,78,311,–,–,"COc1c(C)cnc(CN(CCc2ccc(Cl)cc2)c2cc(Cl)nc(N)n2)c1C [SBI-0640608, 6-Chloro-N4-(4-chlorophenethyl)-N4-((4-methoxy-3,5-dimethylpyridin-2-yl)methyl)pyrimidine-2,4-diamine]"

IC50 [1] [nM],Ki [2] [nM],IC50 [3] [nM],inhibition at 1 µM [%],inhibition at 10 µM [%],Compound
≥ 32000,> 8000,> 32000,–,–,"COc1c(C)cnc(CN(c2cc(Cl)nc(N)n2)C(C)C)c1C [SBI-0639352, 6-Chloro-N4-isopropyl-N4-((4-methoxy-3,5-dimethylpyridin-2-yl)methyl)pyrimidine-2,4-diamine]"
7500,1000,4000,7,61,COc1c(C)cnc(CNc2cc(Cl)nc(N)n2)c1C [SBI-0206665]
432,108,432,–,–,"6-Chloro-N4-((4-methoxy-3,5-dimethylpyridin-2-yl)methyl)-N4-(3-methoxyphenethyl)pyrimidine-2,4-diamine [SBI-0640606]"
≥ 32000,> 8000,> 32000,–,–,"COc1c(C)cnc(CN(C(=O)CCCCl)c2cc(Cl)nc(N)n2)c1C [SBI-0639902, N-(2-Amino-6-chloropyrimidin-4-yl)-4-chloro-N-((4-methoxy-3,5-dimethylpyridin-2-yl)methyl)butanamide]"
–,> 2500,> 10000,–,17,Cc1cc(C)cc(CNc2cc(C(F)(F)F)nc(N)n2)c1 [SBI-0633823]
≥ 32000,> 8000,> 32000,–,–,"Cc1cnc(CN(C)c2cc(Cl)nc(N)n2)c(C)c1Br [SBI-0639900, N4-((4-Bromo-3,5-dimethylpyridin-2-yl)methyl)-6-chloro-N4-methylpyrimidine-2,4-diamine]"
–,> 2500,> 10000,–,4,COc1ccc(CNc2cc(C(F)(F)F)nc(N)n2)c(OC)c1OC [SBI-0630180]
2870,718,2870,–,–,"C=CCN(Cc1ncc(C)c(OC)c1C)c1cc(Cl)nc(N)n1 [SBI-0639355, N4-Allyl-6-chloro-N4-((4-methoxy-3,5-dimethylpyridin-2-yl)methyl)pyrimidine-2,4-diamine]"
–,> 2500,> 10000,–,10,COc1cc(CNc2nc(N)nc3[nH]ccc23)cc(OC)c1OC [SBI-0635446]
1370,343,1370,–,–,"COc1c(C)cnc(CN(CCCO)c2cc(Cl)nc(N)n2)c1C [SBI-0639349, 3-((2-Amino-6-chloropyrimidin-4-yl)((4-methoxy-3,5-dimethylpyridin-2-yl)methyl)amino)propan-1-ol]"
–,> 2500,> 10000,–,34,Nc1nc(Cl)cc(NCc2ccc(-c3ccc(Cl)cc3F)cc2)n1 [SBI-0638966]
–,> 2500,> 10000,–,18,Nc1nc(Cl)cc(Nc2ccc3c(c2)OCO3)n1 [SBI-0636438]
–,213,850,57,94,"COc1c(C)cnc(CN(C)c2cc(Cl)nc(N)n2)c1C [SBI-0639219, 6-Chloro-N4-((4-methoxy-3,5-dimethylpyridin-2-yl)methyl)-N4-methylpyrimidine-2,4-diamine]"
–,> 2500,> 10000,–,21,Nc1nc(Cl)cc(NCc2ccc(-c3ccccc3)cc2)n1 [SBI-0633826]
–,> 2500,> 10000,5,10,COc1cccc2c1ccn2-c1cc(N)c(C(N)=O)c(NC2CCOCC2)c1 [SBI-0639186]
30000,7500,30000,–,–,CCCC(=O)N(Cc1ncc(C)c(OC)c1C)c1cc(Cl)nc(N)n1 [SBI-0640645]
–,> 2500,> 10000,–,25,COc1cc(CNc2cc(Cl)nc(N)n2)cc(OC)c1OC [SBI-0206664]
2210,553,2210,–,–,"COc1c(C)cnc(CN(Cc2ccccc2)c2cc(Cl)nc(N)n2)c1C [SBI-0639351, N4-Benzyl-6-chloro-N4-((4-methoxy-3,5-dimethylpyridin-2-yl)methyl)pyrimidine-2,4-diamine]"
> 250000,> 2500,> 10000,–,–,COc1cc(NCc2cc(OC)c(OC)c(OC)c2)nc(N)n1 [SBI-0633825]
